Regarding `C=CCCCC(=O)O`, the melting point is -37 °C.

Compound `CC(=O)N1C(=O)c2ccccc2C1=O` came in with a melting point of 137 °C. For the compound `CC(C)(C)c1ccc2c(c1)-c1cc(C(C)(C)C)ccc1C2`, the melting point worked out at 81 °C. In turn, `CCOC(=O)c1c(-c2ccccc2)csc1NC(=O)CN(CC)CC` came in with a melting point of 93 to 94 °C. Under `O=C(O)c1ccc(OC2CCOCC2)cc1` stands 185 to 186 °C. Under `COc1ccc(C(=O)Cl)cc1` stands 24.5 °C; under `CCCCCCCCCCCCCCCCCN`, 49 °C; under `CC=CC=CC=CC=O`, 56.8 °C.

For the compound `CCOC(=O)C(C)(C)C(=O)OCC`, the melting point is -30.4 °C.

`Cn1cccc1C(=O)O`: the melting point stood at 137 °C. Under `O=[N+]([O-])c1ccc(Cl)c(CO)c1` stands 77 to 78 °C.

`O=C1CCC(c2ccccc2)c2ccccc21` (stereo not drawn) yielded a melting point of 73 to 76 °C. For `COc1ccc(-c2cc(=O)c3ccccc3o2)cc1OC` the value was 155 °C; for `C[C@]12CC[C@H]3[C@@H](CCC4CC(=O)CC[C@@]43C)C1=CCC2=O` (stereo partly drawn), 151 °C; for `NC(=O)N1CCCCC1`, 105 °C.

In turn, `CCOC(=O)CSc1nc(C)n[nH]1` came in with a melting point of 99 to 101 °C. For `NC(=O)NNC(N)=O` the value was 247 to 250 °C; for `Cc1nc(-c2ccc(Br)s2)no1`, 54 to 55 °C. On to `COC(=O)c1cc(OCc2ccccc2)cc(OCc2ccccc2)c1`, for which the melting point lay within 67 to 70 °C. For `C=C1C(=O)C23C(OC(C)=O)CC4C(C)(C)CCC(OC(C)=O)C4(C)C2C(OC(C)=O)CC1C3OC(C)=O` (stereo not drawn) the value was 277 °C; for `c1ccc2cc3c(cc2c1)CC1OC1C3` (stereo not drawn), 159 to 160 °C. For `CCC1C2CC3C4N(C)c5ccccc5C45CC(C2C5O)N3C1O` (stereo not drawn) the value was 159 °C; for `CN(C)C(=S)Oc1ccc2ccccc2c1`, 90 °C; for `COC(=O)c1cc(C=O)oc1C`, 83 °C.

With `C=CCc1ccc(OC)c(OC)c1`, the melting point is 70 °C. As to `Cc1ccc(OP(=O)(Oc2ccc(C)cc2)Oc2ccc(C)cc2)cc1`, the melting point was found to be 77.5 °C. In the case of `O=CC(C=O)c1cnc2ccccc2n1`, the melting point fell in the range of 197 to 199 °C. The compound `O=C(NC(Cc1ccccc1)C(=O)O)OCc1ccccc1[N+](=O)[O-]` (stereo not drawn) returned a melting point of 140 to 142 °C. The compound `Cn1c(S)nnc1Cc1nc(-c2cnccn2)no1` had a melting point of 203 to 204 °C.

`N#CC(CCc1ccc(Cl)cc1)(Cn1cncn1)c1ccccc1` (stereo not drawn): the melting point was 126 °C. Under `O=C1CC2OCC=C3CN4CCC56c7ccccc7N1C5C2C3CC46` (stereo not drawn) stands 287 °C.

`C=C(Br)C(=O)O`: the melting point is 68 °C. `CCCCCCCCCCCCc1ccccc1`: the melting point was determined as 3 °C. For `c1ccc(-c2nnc(NC3=NCCN3CN3CCCCC3)s2)cc1` the value was 133 to 134 °C; for `Cc1ccccc1N1CCNCC1`, 48 to 52 °C. As for `CCSc1nc(N)nc(C(C)C)n1`, the melting point was 115 to 117 °C. On to `O=C(Nc1ccc(Cl)cc1)C(Cl)=C(Cl)Cl`, for which the melting point stood at 146 °C. Under `CC12CCC(CC/C1=N\O)C2(C)C` (stereo not drawn) stands 164 °C; under `COP(=S)(OC)SCC(=O)N(c1ccc(Cl)cc1)C(C)C`, 51 °C. Under `Cc1cccc(CO)c1[N+](=O)[O-]` stands 42 to 48 °C. As to `O=C(Cl)c1ccc(N2CCOCC2)nc1`, the melting point lay within 158 to 159 °C. `CC(C)(C)OC(=O)Nc1ccc(CN)cc1` registered a melting point of 89 to 94 °C. Consider `CC(C)(C)CC(=O)OCC(=O)C1(O)CCC2C3CCC4=CC(=O)CCC4(C)C3C(O)CC21C` (stereo not drawn), for which the melting point is 168 °C. With `Cc1nccc(-c2cccc(S(=O)(=O)Cl)c2)n1`, the melting point lay within 174 to 175 °C.

On to `O=CC(C=O)c1nc2ccccc2o1`, for which the melting point lay within 222 to 230 °C.

On to `O=C(c1ccccc1)C(Br)c1ccccc1` (stereo not drawn), for which the melting point was 53 to 58 °C. The compound `CCN(CC)C(=O)N1CCN(C)CC1` showed a melting point of 48 °C. For `O=C1C(Br)=C(Br)C(=O)C(Br)=C1Br` the value was 292 to 294 °C; for `CCC(O)(CC)C1(C)CCC(C(=O)O)C(C)(C)O1` (stereo not drawn), 138 °C; for `CCNc1nc(Cl)nc(NCC(=O)OCC)n1`, 228 °C.

Regarding `CSc1nc2cc([N+](=O)[O-])ccc2[nH]1`, the melting point fell in the range of 211 to 212 °C. Under `OCc1cc(O)ccc1I` stands 146 to 148 °C; under `O=C(O)c1cncc(-c2ccccc2)c1`, 260 °C.

Compound `CCOC(=O)C(C#N)=Cc1ccc(-c2ccc(C)cc2)o1` came in with a melting point of 123 to 124 °C. Compound `OCC(CO)(CCl)CCl` returned a melting point of 83 °C. For `O=Cc1c[nH]nc1-c1ccc(F)cc1` the value was 160 to 164 °C. Under `CC(=O)Nc1ccc(F)cc1[N+](=O)[O-]` stands 70 to 73 °C; under `CCCCCCCCCCCCCCCCCCN=C=O`, 20 °C; under `O=C(O)Cc1ccc(Cl)c(Cl)c1`, 90 °C. The compound `O=Cc1ccc(N2CCOCC2)nc1` yielded a melting point of 88 to 89 °C.

Compound `CC(O)Cn1cnc2c1c(=O)n(C)c(=O)n2C` (stereo not drawn) returned a melting point of 136 °C. Under `Cc1nnc(-c2ccccc2)c2noc(C)c12` stands 180 °C.

In turn, `O=[N+]([O-])c1ccc(-c2nnc3n2NCS3)cc1` yielded a melting point of 218 °C. For `CN1CCN(C(=O)OC2C3=C(SCCS3)C(=O)N2c2ccc3ccc(Cl)nc3n2)CC1` (stereo not drawn) the value was 280 °C; for `Cc1ccc(O[Si]23OCCN(CCO2)CCO3)cc1`, 188 °C. For `O=C(Cl)c1cc2cc(Br)ccc2s1` the value was 99 to 102 °C; for `CC1C(=O)C23C(O)CC4C(C)(CO)CCCC4(CO)C2C(O)CC1C3O` (stereo not drawn), 266 °C; for `Cc1ccc2nc3sc(=O)sc3nc2c1`, 170 °C. The compound `FC(F)(F)c1ccnc(S)n1` showed a melting point of 161 to 166 °C. On to `COc1cc2c(cc1OC)C(C)=NCC2`, for which the melting point fell in the range of 103 to 106 °C. In turn, `O=C(O)/C=C/c1ccc(F)c(F)c1` returned a melting point of 193 to 198 °C. `COc1cc(Cl)nc(N)n1` yielded a melting point of 169 to 176 °C. For `CN(C)c1ccc(C=Cc2ccc3ccccc3n2)cc1` the value was 184 °C. With `CC(=Cc1ccccc1)CC(N)=O`, the melting point came to 133 °C. `O=C(Nc1ccccc1)OCc1ccccc1[N+](=O)[O-]` came in with a melting point of 141 °C. For `CON(/C=C1\C(=O)C2(C)CCC1C2(C)C)c1ccccc1` (stereo not drawn) the value was 75 to 76 °C. Under `Cc1nc2ccccn2c1Br` stands 73 to 74 °C. In turn, `c1ccc(-c2nc3ccccc3[nH]2)nc1` returned a melting point of 223 °C. In turn, `OCCN1CCN(c2nccc(C(F)(F)F)n2)CC1` registered a melting point of 70 to 71 °C.

Consider `COC(OC)(OC)OC`, for which the melting point is -5 °C. Under `CC1CC=CC2(O1)OC1CC(=O)OC1C1(O)C(=O)c3ccccc3C(=O)C21O` (stereo not drawn) stands 238 °C; under `O=C(C(C(=O)N1CCOCC1)c1ccccc1)N1CCOCC1`, 187 °C; under `CCc1cccc(N)c1`, -8 °C.

In the case of `O=Cc1ccc(OCc2ccc(Cl)c(Cl)c2)cc1`, the melting point was in the range of 92 to 93 °C.

Compound `Clc1ccc(-c2cc[nH]n2)cc1` came in with a melting point of 80 to 84 °C. Take `CCOC(=O)Cc1cc(C(=NNc2ccccc2)C(=O)OCC)c([N+](=O)[O-])cc1[N+](=O)[O-]`: the melting point was 154 to 155 °C. Under `O=C(C=Cc1cccc(O)c1)c1ccccc1` stands 156 to 158 °C; under `COc1cc(C=O)ccc1OCc1c(F)cccc1Cl`, 124 to 126 °C; under `O=CCCc1ccccc1`, 47 °C. On to `Brc1ccc(-c2cccnc2)nc1`, for which the melting point was 77 °C. For the compound `O=S1(=O)c2cccc3cccc(c23)N1CCCCCl`, the melting point was in the range of 38 to 40 °C.

The compound `Cn1c(=S)[nH]c2ccccc2c1=O` came in with a melting point of 271 to 272 °C. For the compound `CC1CC=CC2C3OC3(C)C(C)C3C(Cc4ccccc4)NC(=O)C23OC(=O)OC=CC(C)(O)C1=O` (stereo not drawn), the melting point was determined as 206 °C. For `O=C(O)[C@@H]1Cc2ccc(O)cc2CN1` the value was 273 to 275 °C; for `BrCc1cccc2nonc12`, 77 to 79 °C; for `Nc1cccc(-c2cccnc2)c1`, 74 to 78 °C. For `COc1ccc(N)cc1OC` the value was 88 °C; for `COC(=O)c1cc(Br)cc(C(=O)OC)c1`, 89 to 91 °C.

`COC(=O)c1scc(C)c1N=C=S` showed a melting point of 58 to 60 °C. For `CC12CCC(C(CO)C1=O)C2(C)C` (stereo not drawn) the value was 138 °C. The compound `NNC(=O)N1N=C(c2ccccc2)CCC1=O` displayed a melting point of 166 to 168 °C.

In turn, `O=C(O)c1ccc(-n2cccc2)cc1` came in with a melting point of 288 to 291 °C. For `O=[N+]([O-])c1ccc(S(=O)(=O)O)c([N+](=O)[O-])c1`, the melting point was 108 °C. Under `OC(c1ccc(F)cc1)(c1ccc(F)cc1)c1ccc(F)cc1` stands 92 °C; under `C1CNCCCNCCNCCCNC1`, 98 to 102 °C.

Compound `O=C(O)[C@@H]1CCN1C(=O)OCC1c2ccccc2-c2ccccc21` registered a melting point of 135 °C.

`Cn1ccc2cc(C=O)ccc21` gave a melting point of 84 to 86 °C.

In turn, `Nn1c(S)nnc1C(F)(F)F` came in with a melting point of 141 °C. `O=C(Cl)c1ccccc1Oc1ccccc1` showed a melting point of 37 to 39 °C. Under `CCOC(=O)c1[nH]c2cc3[nH]c(C(=O)OCC)c(OC(C)=O)c3cc2c1OC(C)=O` stands 178 °C; under `NC(=S)c1ccc(-c2ccccn2)s1`, 198 to 200 °C; under `c1ccc2sncc2c1`, 38 °C.

As to `CCCCCCCCCCC(=O)OCC`, the melting point was -15 °C.

By melting point is commonly meant the temperature, or range, at which the solid turns liquid.

(Values after a melting point compilation (Tetko et al.).)
